This passage reports IC50 and EC50 results from US9169252B2 (BRISTOL-MYERS SQUIBB COMPANY, priority 2014, dated 2015).

Experiment [1] has as its system TLR2 induced IL-6 in peripheral blood mononuclear cells (PBMCs). Briefly: PBMC TLR2 Induced IL-6 Assay. The class given is cell-based, human. Particulars: Homo sapiens, PBMC, human PBMCs, lipoteichoic acid stimulated, IL-6 by ELISA; for IC50: read-out: Cell IC50; for EC50: read-out: Cell EC50. In a few lines: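 Lipoteichoic acid at 10 µg/ml served as TLR2 stimulus for 5 hours, following a 30-minute compound pretreatment at 37° C. Cells were Ficoll-isolated human PBMCs, 250000 cells/well, cultured in RPMI plus 10% heat-inactivated FCS.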

The target of another experiment is IRAK4 (Homo sapiens (Human), UniProt Q9NWZ3). Briefly: IRAK4 Inhibition Assay. The class given is biochemical. Particulars: ATP 500 μM; IRAK4 0.6 nM; read-out: IRAK4 IC50. In outline:
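Mobility-shift readout: fluorescent substrate and phosphoproduct resolved electrophoretically on Caliper LabChip 3000 after EDTA quench (35 mM). Enzyme reaction of IRAK4, substrates and test compound ran 60 min at room temperature.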

IRAK4, sequence (Q9NWZ3 whole entry, species assumed): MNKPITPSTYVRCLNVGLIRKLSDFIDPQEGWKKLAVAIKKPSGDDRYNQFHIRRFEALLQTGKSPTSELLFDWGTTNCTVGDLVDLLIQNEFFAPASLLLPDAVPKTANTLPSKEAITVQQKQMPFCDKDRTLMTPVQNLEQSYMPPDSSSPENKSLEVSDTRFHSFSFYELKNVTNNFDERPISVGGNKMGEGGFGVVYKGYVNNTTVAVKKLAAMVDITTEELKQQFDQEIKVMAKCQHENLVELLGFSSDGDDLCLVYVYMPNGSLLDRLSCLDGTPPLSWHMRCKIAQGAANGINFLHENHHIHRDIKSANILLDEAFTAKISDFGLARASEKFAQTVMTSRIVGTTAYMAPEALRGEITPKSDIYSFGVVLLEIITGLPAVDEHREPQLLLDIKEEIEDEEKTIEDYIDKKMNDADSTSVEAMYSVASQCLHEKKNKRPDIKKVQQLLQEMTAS

One may read the IC50 as the concentration at which inhibition is half-maximal. For `CC(C)CCNC(=O)c1cnc(-n2ncc3cc(C#N)cnc32)cc1NC1COC1` [Example 557], the IC50 in experiment [1] amounted to 475 nM; at IRAK4, 5.1 nM.

As for `N#Cc1cc2cnn(-c3cc(NC4COC4)c(C(=O)NCCC4CC4)cn3)c2nc1N` [Example 558], the IC50 came to 615 nM in experiment [1] and 6.1 nM on IRAK4.

Consider `CCCCNC(=O)c1cnc(-n2ncc3cc(C#N)c(N)nc32)cc1NC1COC1` [Example 559], for which the values for the IC50 (in experiment [1]; at IRAK4) were 18 nM and 5.3 nM, respectively.

For `CC(C)CCNC(=O)c1cnc(-n2ncc3cc(C#N)c(N)nc32)cc1NC1COC1` [Example 560], the IC50 in experiment [1] was determined as 254 nM; at IRAK4, 3.4 nM.

With `CCCCNC(=O)c1cnc(-n2ncc3cc(C#N)cnc32)cc1NC1COC1` [Example 561], the IC50 in experiment [1] came out at 321 nM; at IRAK4, 7.8 nM.

By EC50 is commonly meant the concentration at which the effect is half-maximal. Take `CC(C)(O)[C@H](F)CNC(=O)c1cnc(-n2ncc3cc(F)cnc32)cc1NC1CCOCC1` [Example 562]: the EC50 in experiment [1] was determined as 255 nM. Besides, on IRAK4, the IC50 stood at 12.5 nM.

With `CC(C)(O)[C@H](F)CNC(=O)c1cnc(-n2ncc3cc(C#N)cnc32)cc1NCCC(F)(F)F` [Example 563, (R)-6-(5-Cyano-1H-pyrazolo[3,4-b]pyridin-1-yl)-N-(2-fluoro-3-hydroxy-3-methylbutyl)-4-((3,3,3-trifluoropropyl)amino)nicotinamide], the EC50 in experiment [1] worked out at 159 nM. The IC50 on IRAK4 is 5 nM.

As to `COc1cnc(NC(=O)c2cnc(-n3ncc4cc(C#N)cnc43)cc2NC(C)C)cn1` [Example 564], the EC50 in experiment [1] amounted to 659 nM. In addition, the IC50 at IRAK4 turned out to be 20.1 nM.

For the compound `CC(C)Nc1cc(-n2ncc3cc(C#N)cnc32)ncc1C(=O)NCc1nn[nH]n1` [Example 566], the half-maximal effective concentration (EC50) in experiment [1] turned out to be 637 nM. The IC50 on IRAK4 was determined as 17.2 nM.

For the compound `CC(C)Nc1cc(N2CCc3cc(C#N)cnc32)ncc1C(=O)NC[C@@H](F)C(C)(C)O` [Example 567], in experiment [1], the EC50 came out at 164 nM and the IC50 was found to be 264 nM. Also, the IC50 at IRAK4 is 9.9 nM.

`CCNc1cc(-n2ncc3cc(C#N)cnc32)ncc1C(=O)NC[C@@H](F)C(C)(C)O` [Example 568]: in experiment [1], the EC50 was found to be 661 nM and the 50% inhibitory concentration (IC50) stood at 1370 nM. Besides, the 50% inhibitory concentration (IC50) at IRAK4 stood at 8.9 nM.

As to `CC(C)[C@@H](CO)Nc1cc(-n2ncc3cc(C#N)cnc32)ncc1C(=O)NC[C@@H](F)C(C)(C)O` [Example 569], the EC50 in experiment [1] was found to be 242 nM. Further, the IC50 on IRAK4 is 13 nM.

Consider `CC(C)(O)[C@H](F)CNC(=O)c1cnc(-n2ncc3cc(C#N)cnc32)cc1NCC(C)(C)N1CCOCC1` [Example 570], for which the EC50 in experiment [1] is 425 nM. Moreover, at IRAK4, the IC50 was found to be 10.7 nM.

Regarding `CC(C)(O)[C@H](F)CNC(=O)c1cnc(-n2ncc3cc(C#N)cnc32)cc1NCc1cocn1` [Example 571], the IC50 in experiment [1] is 101 nM; at IRAK4, 15.2 nM.

For the compound `CC(C)(O)[C@H](F)CNC(=O)c1cnc(-n2ncc3cc(C#N)cnc32)cc1NCC(F)F` [Example 574], the values for the IC50 (in experiment [1]; on IRAK4) were 258 nM and 15.3 nM, respectively.

For the compound `CC(C)(C)CNc1cc(-n2ncc3cc(C#N)cnc32)ncc1C(=O)NC[C@@H](F)C(C)(C)O` [Example 576], the IC50 in experiment [1] was found to be 153 nM; at IRAK4 it was 5.8 nM.

Take `CCNc1cc(-n2ncc3cc(C#N)c(N)nc32)ncc1C(=O)NC[C@@H](F)C(C)(C)O` [Example 577]: the IC50 in experiment [1] is 175 nM; at IRAK4, 3.2 nM.

Turning to `CCCNc1cc(-n2ncc3cc(C#N)c(N)nc32)ncc1C(=O)NC[C@@H](F)C(C)(C)O` [Example 578], the figures for the IC50 (in experiment [1]; at IRAK4) were 218 nM and 2.6 nM, respectively.

Consider `CC(C)Nc1cc(-n2ncc3cnc(N)nc32)ncc1C(=O)NC[C@@H](F)C(C)(C)O` [Example 579], for which the IC50 amounted to 269 nM in experiment [1] and 3.9 nM on IRAK4.

Turning to `CCNc1cc(-n2ncc3cnc(N)nc32)ncc1C(=O)NC[C@@H](F)C(C)(C)O` [Example 580], the results for the IC50 (in experiment [1]; on IRAK4) were 487 nM and 10.7 nM, respectively.

As for `CC(C)(O)[C@H](F)CNC(=O)c1cnc(-n2ncc3cc(C#N)cnc32)cc1NCC1(F)CCC1` [Example 581], the figures for the 50% inhibitory concentration (IC50) (in experiment [1]; on IRAK4) were 227 nM and 8.4 nM, respectively.

For the compound `C[C@@H](F)CNc1cc(-n2ncc3cc(C#N)cnc32)ncc1C(=O)NC[C@@H](F)C(C)(C)O` [Example 582], the half-maximal inhibitory concentration (IC50) amounted to 109 nM in experiment [1] and 3.8 nM on IRAK4.

Regarding `C[C@H](F)CNc1cc(-n2ncc3cc(C#N)cnc32)ncc1C(=O)NC[C@@H](F)C(C)(C)O` [Example 583], the IC50 in experiment [1] stood at 188 nM; at IRAK4, 4.1 nM.

Consider `CC(C)Nc1cc(-n2ncc3cc(C#N)cnc32)ncc1C(=O)NC1CCN(C(=O)C2CN(S(C)(=O)=O)C2)CC1` [Example 584], for which, in experiment [1], the EC50 came to 209 nM and the IC50 turned out to be 508 nM. In addition, at IRAK4, the half-inhibitory concentration (IC50) amounted to 10 nM.

As to `CC(C)(CN)CNc1cc(-n2ncc3cc(C#N)cnc32)ncc1C(=O)NC[C@@H](F)C(C)(C)O` [Example 585], the results for the 50% inhibitory concentration (IC50) (in experiment [1]; on IRAK4) were 147 nM and 8.5 nM, respectively.

For `CC(C)(O)[C@H](F)CNC(=O)c1cnc(-n2ncc3cc(C#N)cnc32)cc1NCCNS(C)(=O)=O` [Example 586], the IC50 in experiment [1] is 259 nM; on IRAK4 it was 9.7 nM.

Consider `CC(C)(O)[C@H](F)CNC(=O)c1cnc(-n2ncc3cc(C#N)cnc32)cc1NCCNC(=O)OC(C)(C)C(F)(F)F` [Example 587], for which the values for the IC50 (in experiment [1]; at IRAK4) were 298 nM and 13.8 nM, respectively.

Regarding `CC[C@@H](CO)Nc1cc(-n2ncc3cc(C#N)cnc32)ncc1C(=O)NC[C@@H](F)C(C)(C)O` [Example 588], the IC50 came to 506 nM in experiment [1] and 4.4 nM at IRAK4.

As to `CC[C@@H](CO)Nc1cc(-n2ncc3cc(Cl)cnc32)ncc1C(=O)NC[C@@H](F)C(C)(C)O` [Example 589], the IC50 in experiment [1] amounted to 361 nM; on IRAK4, 4.1 nM.

On to `C[C@H](F)CNc1cc(-n2ncc3cc(C#N)c(N)nc32)ncc1C(=O)NC[C@@H](F)C(C)(C)O` [Example 590], for which the IC50 was found to be 129 nM in experiment [1] and 1.9 nM at IRAK4.

For the compound `C[C@@H](F)CNc1cc(-n2ncc3cc(C#N)c(N)nc32)ncc1C(=O)NC[C@@H](F)C(C)(C)O` [Example 591], the 50% inhibitory concentration (IC50) turned out to be 160 nM in experiment [1] and 2.7 nM on IRAK4.

For `COC(C)(C)CNc1cc(-n2ncc3cc(C#N)cnc32)ncc1C(=O)NC[C@@H](F)C(C)(C)O` [Example 593], the results for the IC50 (in experiment [1]; on IRAK4) were 408 nM and 19.6 nM, respectively.

For the compound `CC(C)(O)[C@H](F)CNC(=O)c1cnc(-n2ncc3cc(C#N)cnc32)cc1NCCCF` [Example 595], the IC50 in experiment [1] was 129 nM; on IRAK4, 5.3 nM.

Take `CC(C)C(O)CNc1cc(-n2ncc3cc(C#N)cnc32)ncc1C(=O)NC[C@@H](F)C(C)(C)O` (stereo partly shown) [Example 597]: the IC50 is 307 nM in experiment [1] and 15.6 nM on IRAK4.

In the case of `CC(C)(O)[C@H](F)CNC(=O)c1cnc(-n2ncc3cc(C#N)cnc32)cc1NCCOC(F)F` [Example 598], the IC50 came to 54 nM in experiment [1] and 16.6 nM on IRAK4.

As to `CC(C)(F)CCNc1cc(-n2ncc3cc(C#N)c(N)nc32)ncc1C(=O)NC[C@@H](F)C(C)(C)O` [Example 599], the IC50 is 275 nM in experiment [1] and 4.8 nM at IRAK4.

As to `CC(C)(F)CCNc1cc(-n2ncc3cc(C#N)cnc32)ncc1C(=O)NC[C@@H](F)C(C)(C)O` [Example 600], the IC50 came to 477 nM in experiment [1] and 5.3 nM on IRAK4.

As for `CC(C)(CNc1cc(-n2ncc3cc(C#N)cnc32)ncc1C(=O)NC[C@@H](F)C(C)(C)O)OC(F)F` [Example 601], the IC50 in experiment [1] is 490 nM; at IRAK4, 14.2 nM.

Regarding `CC[C@@H](F)CNc1cc(-n2ncc3cc(Cl)cnc32)ncc1C(=O)NC[C@@H](F)C(C)(C)O` [Example 602], the IC50 in experiment [1] was 233 nM; at IRAK4, 9.3 nM.

In the case of `CC(C)(CNc1cc(-n2ncc3cc(Cl)cnc32)ncc1C(=O)NC[C@@H](F)C(C)(C)O)OC(F)F` [Example 603], the IC50 in experiment [1] is 321 nM; at IRAK4, 6.7 nM.

As for `CC(C)(O)[C@H](F)CNC(=O)c1cnc(-n2ncc3cc(C#N)cnc32)cc1NCC1CC1` [Example 605], the figures for the IC50 (in experiment [1]; at IRAK4) were 165 nM and 7.5 nM, respectively.

On to `CC(C)(O)[C@H](F)CNC(=O)c1cnc(-n2ncc3cc(C#N)cnc32)cc1N[C@H]1CC[C@H](C(C)(C)O)CC1` [Example 606, 6-(5-Cyano-1H-pyrazolo[3,4-b]pyridin-1-yl)-N—((R)-2-fluoro-3-hydroxy-3-methylbutyl)-4-(((1r,4R)-4-(2-hydroxypropan-2-yl)cyclohexyl)amino)nicotinamide], for which the EC50 in experiment [1] worked out at 127 nM. Moreover, the IC50 at IRAK4 was 4 nM.

Regarding `CC(C)(O)[C@H](F)CNC(=O)c1cnc(-n2ncc3cc(C#N)cnc32)cc1N[C@H]1CC[C@@](C)(O)CC1` [Example 607], the EC50 in experiment [1] stood at 332 nM. The IC50 on IRAK4 amounted to 4 nM.

On to `CC(C)(O)[C@H](F)CNC(=O)c1cnc(-n2ncc3cc(C#N)cnc32)cc1N[C@H]1CC[C@](C)(O)CC1` [Example 608], for which, in experiment [1], the EC50 stood at 318 nM. At IRAK4, the 50% inhibitory concentration (IC50) was 12.6 nM.

On to `CC(C)(O)[C@H]1CCC[C@@H](Nc2cc(-n3ncc4cc(C#N)cnc43)ncc2C(=O)NC[C@@H](F)C(C)(C)O)C1` [Example 612], for which, in experiment [1], the EC50 worked out at 163 nM. For the same compound, the IC50 in experiment [1] turned out to be 262 nM; at IRAK4, 5.6 nM.

As for `CC(C)(O)[C@H](F)CNC(=O)c1cnc(-n2ncc3cc(C#N)cnc32)cc1NC12CCC(O)(CC1)C2` [Example 613], in experiment [1], the EC50 was 157 nM and the IC50 was 130 nM. Moreover, on IRAK4, the IC50 stood at 2.8 nM.

For the compound `CC(C)(O)[C@H](F)CNC(=O)c1cnc(N2CCc3cc(C#N)cnc32)cc1NC1CC1` [Example 616], the EC50 in experiment [1] was 305 nM. In addition, the IC50 was 425 nM in experiment [1] and 10.9 nM on IRAK4.
